Data on 8 molecules can be found in US20240294504A1, “COMPOUNDS, COMPOSITIONS, AND METHODS FOR INDUCING ANTIMICROBIAL INTRACELLULAR ACTIVITY AND FOR PREVENTING AND TREATING MICROBIAL INFECTIONS” (The Broad Institute, Inc., priority 2021, published 2024).

Where “and” joins values, the source holds several entries; their conditions need not be identical. Equal values may be shown once. Entries after “also recorded” stand apart in the source; their conditions may differ. Read-outs that look alike come from different tables or passages of the source. A value given as a limit tells only on which side of the number the result lay.

In data set [1] the test system is intracellular K. pneumoniae. The experiment in a line: Intracellular survival of K. pneumoniae (RB120) in bladder epithelial cells (gentamicin protection assay, CFUs from plated cell lysates). Format: cell-based, Klebsiella pneumoniae. The following applies: for EC50: 24 hours of treatment, bladder epithelial cells, read-out: EC50 of dose-dependent killing / antimicrobial activity against intracellular K. pneumoniae.

Data set [2] has as its system bladder epithelial cells.
The test system of data set [3] is intracellular carbapenem-tolerant K. pneumoniae. The following applies: primary screen 5 μM, retest 2.5 to 20 μM.
Description: Bladder epithelial cells were infected with lux-expressing K. pneumoniae and incubated with the carbapenem antibiotic meropenem (see FIG. 1A), after killing extracellular bacteria with a high dose of gentamicin shortly after the infection. Intracellular survival was assessed by determining the luminescence intensity of intracellular bacteria that had been liberated by host cell lysis and outgrown in LB medium for 7 hours. […] Mean and SD of Z-factors of n=32 plates from 4 batches (independent outgrowth events) shown. […] Partial hits and hits involving known antibiotics were excluded. Hits from the primary screen were retested in a secondary screen at different concentration.
The test system of data set [4] is intracellular K. pneumoniae. The experiment in a line: Intracellular survival of K. pneumoniae in human lung epithelial cell line A549. The following applies: 10 μM, over 2 hours. It counts as cell-based, Klebsiella pneumoniae.
Data set [5] relates to extracellular K. pneumoniae. It counts as cell-based, Klebsiella pneumoniae.
Data set [6] concerns K. pneumoniae ST258 expressing mNeon (UCI_38DwbaP_mNeon). Description: Confocal microscopy of fluorescent Klebsiella-containing vacuoles (LAMP1) in bladder epithelial cells. It counts as cell-based, Klebsiella pneumoniae. The following applies: 10 μM, 24 hours (24 to 48 hours post infection).
Data set [7] concerns tumor growth. The following applies: mouse, in vivo; cited from earlier work.
In data set [8] the test system is cancer cells. The following applies: cited from earlier work.
Data set [9] concerns intracellular Salmonella Typhimurium. Description: Intracellular survival of Salmonella Typhimurium in host cells. It counts as cell-based.
The test system of data set [10] is uropathogenic Escherichia coli (UPEC, UTI89). Description: Intracellular survival of UPEC in bladder epithelial cells. The settings on record: 10 μM, 4 hours. Format: cell-based.
Data set [11] relates to Pseudomonas aeruginosa (PAO1). The experiment in a line: Intracellular survival of P. aeruginosa in bladder epithelial cells. It counts as cell-based. The following applies: 10 μM, 24 hours.
The test system of data set [12] is SARS-COV-2. The experiment in a line: SARS-COV-2 infection of veroE6 kidney epithelial cells (immunofluorescence microscopy). It counts as cell-based.
In data set [13] the test system is interferon beta response. The experiment in a line: Interferon beta response in infected bladder epithelial cells. Format: cell-based, human. The arrangement: dose or concentration left out as unconfirmed. The following applies: 24 hours (24 to 48 hours post infection). The procedure:
FIG. 7. […] Infected cells were treated for 24 hours with […] (S)-crizotinib, AY9944 or DMSO control from 24 to 48 hours post infection.

The test system of data set [14] is post-lanosterol cholesterol biosynthesis pathway. Description: LC-MS based lipidomics of sterol intermediates in host cells. The following applies: 10 μM. Format: cell-based, human. The procedure:
FIGS. 17A-17C. LC-MS based lipidomics evaluation of effect of other available post-lanosterol cholesterol biosynthesis inhibitors on infection. (FIG. 17A) Post-lanosterol pathway. (FIG. 17B) Effect of 10 μM AY9944 or 10 μM (S)-crizotinib after 2 hours of treatment (FIG. 17C) or after 24 hours of treatment.

The subject of data set [15] is Gram-positive bacteria. The settings on record: cited from earlier work.
The mark [16] stands for this setting: 10 μM, after 24 hours of treatment.
Where [17] appears, read: Klebsiella pneumoniae, Epithelial cell.
The mark [18] stands for this setting: 24 h treatment of infected bladder cells.

Turning to `C[C@@H](Oc1cc(-c2cnn(C3CCNCC3)c2)cnc1N)c1c(Cl)ccc(F)c1Cl` [(R)-crizotinib], the “killing % of the intracellular K. pneumoniae population” value in [1] (setting [16]) worked out at 99%. For the same molecule, the EC50 in [1] (setting [17]) is 1.1 µM. In addition, in data set [2], the “host cell cytotoxicity against bladder epithelial cells” value (from here on “host cell cytotoxicity”) was “displayed host cell cytotoxicity in a dose-dependent manner”. Besides, the “outcome in high-throughput screen” value in data set [3] was “top hits”.

On to `C[C@H](Oc1cc(-c2cnn(C3CCNCC3)c2)cnc1N)c1c(Cl)ccc(F)c1Cl` [(S)-crizotinib], for which the “antiinfective activity against intracellular K. pneumoniae in A549 lung epithelial cells” value in data set [4] was “rapid antiinfective activity”. Moreover, the “antibacterial activity against K. pneumoniae grown in axenic medium” value in data set [5] is “did not display antibacterial activity”. For the same molecule, the “killing % of the intracellular population within 15 minutes” value in data set [1] (10 μM, 15 minutes) is 82% and 80%. Besides, the “% of the intracellular population killed after 2 hours of treatment” value in data set [1] (10 μM, 2 hours) stood at 99%. The “effect of removal of gentamicin from the culture medium on antibacterial activity” value in data set [1] (10 μM, 2 hours, presence vs absence of gentamicin) is listed as “had no impact on the potent antibacterial activity”. Also, the “killing % of the intracellular K. pneumoniae population” value in data set [1] (setting [16]) is recorded as 99%. Moreover, the “activity against intracellular ciprofloxacin-tolerant K. pneumoniae persisters” value in data set [1] (4 mg/ml ciprofloxacin for 14 hours, then (S)-crizotinib for 6 hours in the presence of ciprofloxacin) is “dose-dependent antibacterial activity”. Moreover, in data set [1] (2 hours, absence of gentamicin, supernatants), the “increase of extracellular bacteria (exocytosis of Klebsiella-containing compartments)” value was “did not result in a significant increase of extracellular bacteria”. The EC50 in data set [1] was 1.7 µM. In [6], the “reduction in the median fluorescence intensity of mNeon-expressing Klebsiella in LAMP1 containing compartments” value was 33% and the “reduction of detected Klebsiella containing compartments” value was found to be 63%. Also, in data set [7], the “tumor growth in mice” value is on record as “suppress tumor growth in mice”. Also, the “host cell cytotoxicity” value in data set [2] is “did not display cytotoxicity”. Also, the “inhibits colony formation of cancer cells” value in data set [8] was “low micromolar concentrations”. For the same molecule, the “antibacterial activity in cells infected with Salmonella Typhimurium” value in data set [9] (HeLa epithelial cells, 10 μM, 20 hours (4 to 24 hours post infection)) is “antibacterial activity”. The “antibacterial activity in bladder epithelial cells infected with UPEC” value in [10] is recorded as “antibacterial activity”. Further, in data set [11], the “antibacterial activity in bladder epithelial cells infected with Pseudomonas aeruginosa” value was “antibacterial activity”. In addition, the “antiviral activity in epithelial cells infected with SARS-COV-2” value in [12] (veroE6, MOI 0.1, 24 h treatment) was “induced antiviral activity in epithelial cells infected with SARS-COV-2 in a dose dependent manner”. In data set [3], the “outcome in high-throughput screen” value is listed as “top hits”. Besides, the “interferon beta response in bladder epithelial cells infected with K. pneumoniae” value in [13] was “do not induce an interferon beta response”.

On to `Clc1ccccc1CNCC1CCC(CNCc2ccccc2Cl)CC1` (centres unmarked) [AY 9944], for which, in data set [5], the “antibacterial activity against K. pneumoniae grown in axenic medium” value is given as “no host cell toxicity or antimicrobial activity in axenic medium”. Moreover, in [1] (10 uM, 60 minutes), the “killed % of the intracellular population in 60 minutes” value was “approx. 80%”. In addition, the EC50 in data set [1] (setting [17]) was 0.94 µM. Besides, the “host cell cytotoxicity” value in [2] (setting [18]) was “no host cell toxicity”. The EC50 in data set [12] (Severe acute respiratory syndrome coronavirus 2, Vero C1008, read-out: EC50 of antiviral activity in SARS-COV-2 infections) is 1 µM. The “outcome in high-throughput screen” value in data set [3] is listed as “hit”. The “interferon beta response in bladder epithelial cells infected with K. pneumoniae” value in [13] is recorded as “do not induce an interferon beta response”. Also, in data set [14] (2 hour treatment), the “FF-MAS, fold increased” value turned out to be 4.2 fold; the “dehydrodesmosterol, fold increased” value was 1.2 fold; the “lanosterol, fold increased” value is listed as 1.2 fold. Moreover, in [14] (24 hour treatment), the “FF-MAS, fold increased” value was found to be 11.9 fold; the “dehydrodesmosterol, fold increased” value is 2.9 fold; the “lanosterol, fold increased” value turned out to be 3 fold.

`CNc1cc(-c2cccc(Cl)c2Cl)nc(N)n1` [TH287]: in data set [1] (10 μM), the “intracellular antibacterial activity after 4 hours of treatment” value is “did not display intracellular antibacterial activity” and the “intracellular antibacterial activity after 24 hours of treatment” value is listed as “modest antibacterial activity”. In addition, the “host cell cytotoxicity” value in data set [2] (setting [18]) is given as “dose dependent toxicity”.

In the case of `Nc1nc(NC2CC2)cc(-c2cccc(Cl)c2Cl)n1` [TH588], in [1] (10 μM), the “intracellular antibacterial activity after 4 hours of treatment” value is listed as “did not display intracellular antibacterial activity; also recorded: did not induce intracellular antibacterial activity” and the “intracellular antibacterial activity after 24 hours of treatment” value is given as “modest antibacterial activity”. For the same molecule, in data set [2] (setting [18]), the “host cell cytotoxicity” value is “dose dependent toxicity”.

For `C[C@@H](Oc1cc(-c2cnn(C3CCNCC3)c2)cnc1N)c1c(Cl)ccc(F)c1Cl` [crizotinib], the “concentration for growth inhibition of Gram-positive bacteria” value in data set [15] is greater than 20 µM.

As for `CC(C)Cn1cnc2c(N)nc3ccccc3c21` [imiquimod], the “anti-infective / antimicrobial activity of TLR7 agonist” value in data set [1] (after 24 hours of treatment) is given as “moderate anti-infective activity; also recorded: Modest antimicrobial activity”.

Turning to `C[C@@H](O)[C@H]1C(=O)N2C(C(=O)O)=C(S[C@@H]3CN[C@H](C(=O)N(C)C)C3)[C@H](C)[C@H]12` [meropenem], in data set [1] (meropenem 10 μg/ml (150 fold of MIC), 20 hours), the “impact on the viability of intracellular K. pneumoniae” value is reported as “no impact; also recorded: ineffective”. The “killed % of intracellular Salmonella Typhimurium population” value in data set [9] (meropenem 10 μg/ml, after 20 hours of treatment) is 87%.
